The target of assay [1] is T1, purified recombinant human Aggrecanase-2 (Ag2t-Phe628-Strep) (Homo sapiens, UniProt Q9UNA0).
T1 construct: the form used is denoted as Ag2t-Phe628-Strep (MW=41,737)
T1 sequence (Q9UNA0 262-628): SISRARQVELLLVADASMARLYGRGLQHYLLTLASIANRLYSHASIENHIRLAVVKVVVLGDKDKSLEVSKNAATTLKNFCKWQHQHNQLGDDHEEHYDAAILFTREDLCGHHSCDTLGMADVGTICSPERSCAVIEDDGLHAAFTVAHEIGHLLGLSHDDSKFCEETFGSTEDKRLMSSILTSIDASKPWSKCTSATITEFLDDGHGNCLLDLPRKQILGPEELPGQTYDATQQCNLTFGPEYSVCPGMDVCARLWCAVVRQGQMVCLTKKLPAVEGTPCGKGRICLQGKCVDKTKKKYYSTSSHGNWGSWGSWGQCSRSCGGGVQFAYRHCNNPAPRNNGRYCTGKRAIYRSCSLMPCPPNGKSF
The assay is described as follows: In vitro fluorescence screen for Aggrecanase-2 inhibitors. Format: biochemical. As to conditions: Table 1; read-out: Agg 2 IC50.

In the next assay the target is T2, MMP-1 (Homo sapiens, UniProt P03956).
T2 sequence (P03956 100-469): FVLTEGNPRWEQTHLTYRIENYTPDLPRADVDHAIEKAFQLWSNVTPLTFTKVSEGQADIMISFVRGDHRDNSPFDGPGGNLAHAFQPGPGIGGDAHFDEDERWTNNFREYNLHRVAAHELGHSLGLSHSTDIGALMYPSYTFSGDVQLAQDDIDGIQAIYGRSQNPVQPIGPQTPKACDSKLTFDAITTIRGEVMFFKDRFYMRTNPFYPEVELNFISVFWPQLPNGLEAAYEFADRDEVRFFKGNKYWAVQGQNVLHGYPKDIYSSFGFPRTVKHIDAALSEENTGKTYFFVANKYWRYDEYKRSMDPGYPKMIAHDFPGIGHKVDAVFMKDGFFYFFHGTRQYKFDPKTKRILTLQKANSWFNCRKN
The assay is described as follows: MMP-1 of Table 1. Format: biochemical. The settings on record: unit inferred.

For assay [2], the target named is T3, purified recombinant human Aggrecanase-1 (rAgg1) (Homo sapiens, UniProt O75173).
T3 sequence (O75173 213-837): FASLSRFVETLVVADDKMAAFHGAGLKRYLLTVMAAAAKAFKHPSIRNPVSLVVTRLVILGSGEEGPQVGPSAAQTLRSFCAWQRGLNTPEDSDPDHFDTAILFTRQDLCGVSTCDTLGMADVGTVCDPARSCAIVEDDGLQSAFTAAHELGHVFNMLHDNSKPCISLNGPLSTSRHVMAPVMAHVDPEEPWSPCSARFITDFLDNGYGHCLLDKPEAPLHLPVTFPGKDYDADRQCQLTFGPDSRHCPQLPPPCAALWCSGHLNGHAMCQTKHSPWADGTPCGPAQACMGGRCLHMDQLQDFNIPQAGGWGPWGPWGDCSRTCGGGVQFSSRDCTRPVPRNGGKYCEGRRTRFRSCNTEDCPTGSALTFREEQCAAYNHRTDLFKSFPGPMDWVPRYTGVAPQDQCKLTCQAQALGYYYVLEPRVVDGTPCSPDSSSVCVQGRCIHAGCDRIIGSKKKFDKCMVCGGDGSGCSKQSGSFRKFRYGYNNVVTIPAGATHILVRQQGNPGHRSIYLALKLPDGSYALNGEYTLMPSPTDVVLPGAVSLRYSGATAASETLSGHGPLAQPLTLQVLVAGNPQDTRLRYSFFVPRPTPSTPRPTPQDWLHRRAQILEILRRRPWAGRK
The assay is described as follows: In vitro fluorescence screen for Aggrecanase-1 inhibitors. The settings on record: Table 1. Format: biochemical.

The target of assay [3] is T4, recombinant human catalytic domain of MMP-14 (Homo sapiens, UniProt P50281).
T4 construct: 177 amino acids corresponding to Tyr89-Gly265 of mature human enzyme; purchased Chemicon International, Inc. CC1041
Put plainly: In vitro fluorescence assay of MMP-14 activity. In kind it is biochemical. As to conditions: Table 1; unit inferred.

The target in assay [4] is T5, recombinant human catalytic domain of MMP-13 (Homo sapiens, UniProt P45452).
T5 construct: catalytic domain of MMP-13 (165 amino acids, residues 104-268, 19 kDa)
The assay is described as follows: In vitro fluorescence assay of MMP-13 activity. As to conditions: Table 1; unit inferred. In kind it is biochemical.

Assay [5] relates to bovine articular cartilage treated with Interleukin 1 alpha (IL-1α). The assay is described as follows: Bovine articular cartilage explant cultures: inhibition of degradation of proteoglycan. Format: cell-based. The settings on record: inhibitory effect expressed as percentage, concentration not printed. In short, it runs like this: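 Bovine metacarpal cartilage discs (6 mm), equilibrated in serum-free DMEM-based medium, were treated with 5 ng/ml IL-1 plus compound (working solutions 0.1-10 μg/ml), with medium collected and replaced on days 1, 2 and 3. Released proteoglycan was measured by DMMB absorbance at 520 nm against chondroitin sulphate standards, expressed as μg per mg cartilage, and inhibition given as percentage.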

Regarding `CC(C)(Cc1ccc(F)cc1)NC(=O)[C@H](CCC(=O)O)NC(=O)c1ccc(-c2ccccc2)cc1` [Example 8OO, N^2-(1,1′-biphenyl-4-ylcarbonyl)-N^1-[2-(4-fluorophenyl)-1,1-dimethylethyl]-L-α-glutamine], the IC50 (as a rule, the midpoint of a concentration-inhibition curve) is 44 nM in assay [1]; over 200000 nM at MMP-1; under 30 nM in assay [2] (read-out: Agg1 IC50); over 200000 nM in assay [3]; over 50000 nM in assay [4]. Also, the Ki (as a rule, the equilibrium dissociation constant of an inhibitor or competing ligand from its target) in assay [2] (enzyme not given, column follows Agg1 IC50, read-out: Ki) worked out at 6 nM. The bovine in assay [5] (Table 1, first of two columns headed bovine) is 87%; in assay [5] (Table 1, second of two columns headed bovine) it was 40%.

(Values after patent publication US7998965B2, “Glutamate aggrecanase inhibitors” (Wyeth LLC, priority 2005, dated 2011).)
